Results published in patent publication US7374748B2, “Pharmaceutical and cosmetic compositions for the protection of the skin from damages induced by sun radiations” (Indena S.p.A., priority 2001, dated 2008).

Tested on: hepatic microsomes
Assay: antioxidant test with CCl4 as pro-oxidant stimulus and hepatic microsomes as target
Format: biochemical
Settings: CCl4 as pro-oxidant stimulus, hepatic microsomes as target
Source text: They are characterized by excellent antioxidizing and antiinflammatory properties.

Substance: vitamin E
- LC50 (antioxidant activity): 30.0 micrograms per ml
